“And” between values parts separate entries of the source, which are not always exact repeats. Equal entries are not always repeated. Where two headings read alike, the source gives them in different places.
Legend:
[1] = tested on: PGD2 induced eosinophil shape change; test: Human whole blood eosinophil shape change assay; type: cell-based
Method in brief: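 Compound added to human whole blood and incubated 15 min at 37° C., 5% CO2, before cell fixation and red-cell lysis. Leukocytes analysed by FACS, eosinophils gated by autofluorescence, 2000 events per sample, triplicate; read-out is inhibition of PGD2-induced eosinophil shape change.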

[2] = Pharmacokinetics following oral administration in the rat; type: in vivo; settings: for concentration at 0.25 h / concentration at 0.5 h / concentration at 1 h / concentration at 2 h / concentration at 4 h / concentration at 6 h / concentration at 8 h / concentration at 12 h / concentration at 24 h / Concentration in Blood: 3 mg/kg oral
Method in brief: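 Rats (groups of 3) given single oral gavage of 0.3 mg/mL suspension in 1% CMC at 10 mL/kg. Serial tail-vein catheter blood, terminal cardiac puncture; heparinised plasma assayed by LC-MS/MS.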

[3] = tested on: DK-PGD2-induced blood eosinophilia; test: Inhibition of DK-PGD2-induced blood eosinophilia in rats; type: in vivo, rat; settings: female rats, oral dosing 30 min before 10 μg DK-PGD2 intracardiac; ED50 from dose-response curve; the values are: ED50
Method in brief: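 Female rats (175–250 g) were given compound orally in DMSO/water and 30 min later received 10 μg DK-PGD2 intracardially under isoflurane. Blood was sampled 60 min after challenge. Eosinophils were counted from total leukocytes plus May-Grunwald/Giemsa differential counts, with ≥5 animals/group pooled across experiments and ED50 taken from the dose-response curve.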

[4] = Homo sapiens, Eosinophil, 10 nm PGD2-induced eosinophil shape change, human whole blood, read-out: Whole Blood IC50
[5] = Homo sapiens, Eosinophil, Table 12 summary of whole blood eosinophil shape change IC50, read-out: IC50 (μmol)
[6] = male, rat, plasma, po, 3 mg/kg, rat, 0.25 h, individual male animals, read-out: Concentration in Blood
[7] = male, rat, plasma, po, 3 mg/kg, rat, 0.25 h, mean, read-out: Concentration in Blood, Mean
[8] = male, rat, plasma, po, 3 mg/kg, rat, 0.5 h, individual male animals, read-out: Concentration in Blood
[9] = male, rat, plasma, po, 3 mg/kg, rat, 0.5 h, mean, read-out: Concentration in Blood, Mean
[10] = male, rat, plasma, po, 3 mg/kg, rat, 1 h, individual male animals, read-out: Concentration in Blood
[11] = male, rat, plasma, po, 3 mg/kg, rat, 1 h, mean, read-out: Concentration in Blood, Mean
[12] = male, rat, plasma, po, 3 mg/kg, rat, 2 h, mean, read-out: Concentration in Blood, Mean
[13] = male, rat, plasma, po, 3 mg/kg, rat, 4 h, mean, read-out: Concentration in Blood, Mean
[14] = male, rat, plasma, po, 3 mg/kg, rat, 6 h, mean, read-out: Concentration in Blood, Mean
[15] = male, rat, plasma, po, 3 mg/kg, rat, 8 h, mean, read-out: Concentration in Blood, Mean
[16] = male, rat, plasma, po, 3 mg/kg, rat, 12 h, mean, read-out: Concentration in Blood, Mean
[17] = male, rat, plasma, po, 3 mg/kg, rat, 24 h, mean, read-out: Concentration in Blood, Mean
[18] = male, rat, plasma, po, 3 mg/kg, rat, 3 mg/kg p.o, individual male animals, read-out: Tmax
[19] = male, rat, plasma, po, 3 mg/kg, rat, 3 mg/kg p.o, individual male animals, read-out: T½ (converted)
[20] = male, rat, plasma, po, 3 mg/kg, rat, 3 mg/kg p.o, mean, summary without unit (Table 12), read-out: AUCinf (mean)
[21] = male, rat, plasma, po, 3 mg/kg, rat, 3 mg/kg p.o, mean, summary without unit (Table 12), read-out: Cmax (mean)
[22] = male, rat, plasma, po, 3 mg/kg, rat, 3 mg/kg p.o, mean, read-out: AUCinf, Mean
[23] = male, rat, plasma, po, 3 mg/kg, rat, 3 mg/kg p.o, mean, read-out: Cmax, Mean
[24] = male, rat, plasma, po, 3 mg/kg, rat, 3 mg/kg p.o, mean, read-out: Tmax, Mean
[25] = male, rat, plasma, po, 3 mg/kg, rat, 3 mg/kg p.o, mean, read-out: T½, Mean (converted)
[26] = rat, 0.25 h, individual male animals, 3 mg/kg
[27] = rat, 0.5 h, individual male animals, 3 mg/kg
[28] = rat, 1 h, individual male animals, 3 mg/kg
[29] = rat, 2 h, individual male animals, 3 mg/kg
[30] = rat, 4 h, individual male animals, 3 mg/kg
[31] = rat, 6 h, individual male animals, 3 mg/kg
[32] = rat, 8 h, individual male animals, 3 mg/kg
[33] = rat, 12 h, individual male animals, 3 mg/kg
[34] = rat, 3 mg/kg p.o, individual male animals, 3 mg/kg

Question: What does the source list for `Cc1c(Cc2ccc(S(C)(=O)=O)cc2)c2cc(F)ccc2n1CC(=O)O` [Compound B, [5-Fluoro-3-(4-methanesulfonyl-benzyl)-2-methyl-indol-1-yl]-acetic acid, reference compound]?
Answer: IC50 [1, 4]: 8 nM; IC50 [1, 5]: 8 nM; IC50 ([1]; Homo sapiens, Eosinophil, whole blood eosinophil shape change IC50 converted to ng/mL, read-out: IC50): 3 ng/mL; IC50 ([1]; Homo sapiens, Eosinophil, read-out: IC50 in the whole blood eosinophil shape change assay): 8 nM; concentration at 0.25 h [2, 6]: 91.8 ng/mL; concentration at 0.25 h [2, 7]: 87.6 ng/mL; concentration at 0.5 h [2, 8]: 121 ng/mL; concentration at 0.5 h [2, 9]: 140 ng/mL; concentration at 1 h [2, 10]: 252 ng/mL; concentration at 1 h [2, 11]: 255 ng/mL; concentration at 2 h [2, 12]: 381 ng/mL; concentration at 4 h [2, 13]: 283 ng/mL; concentration at 6 h [2, 14]: 182 ng/mL; concentration at 8 h [2, 15]: 114 ng/mL; concentration at 12 h [2, 16]: 27.3 ng/mL; concentration at 24 h ([2]; male, rat, plasma, po, 3 mg/kg, rat, 24 h, individual male animals, read-out: Concentration in Blood): 0 ng/mL; concentration at 24 h [2, 17]: 0 ng/mL; Tmax [2, 18]: 2 h; half-life [2, 19]: 3.41 h; AUC(0-inf) [2, 20]: 2200 ng·h/mL; Cmax [2, 21]: 381 ng/mL; AUC(0-inf) [2, 22]: 2200 ng·h/mL; Cmax [2, 23]: 381 ng/mL; Tmax [2, 24]: 2 h; half-life [2, 25]: 2.4 h; Fold over IC50 at 24 h ([2]; mean blood concentration at 24 h (rat, 3 mg/kg p.o.) divided by whole blood IC50 in ng/ml): 0; Concentration in Blood [2, 26]: 113.6 ng/mL and 57.3 ng/mL; Concentration in Blood [2, 27]: 165.7 ng/mL and 132.1 ng/mL; Concentration in Blood [2, 28]: 295.1 ng/mL and 217.5 ng/mL; Concentration in Blood [2, 29]: 349.9 ng/mL and 536.9 ng/mL and 256.2 ng/mL; Concentration in Blood [2, 30]: 179.4 ng/mL and 485.2 ng/mL and 184.9 ng/mL; Concentration in Blood [2, 31]: 128.3 ng/mL and 292.2 ng/mL and 125.8 ng/mL; Concentration in Blood [2, 32]: 72.1 ng/mL and 184.5 ng/mL and 84.7 ng/mL; Concentration in Blood [2, 33]: 36.5 ng/mL and 31.0 ng/mL and 14.5 ng/mL; Concentration in Blood ([2]; rat, 24 h, individual male animals): 0 ng/mL; AUCinf [2, 34]: 1831.4 ng·h/mL and 3256.1 ng·h/mL and 1505.1 ng·h/mL; Cmax [2, 34]: 349.9 ng/mL and 536.9 ng/mL and 256.2 ng/mL; T½ [2, 34]: 1.80 h and 1.86 h; AUCinf (mean) ([2]; rat, 3 mg/kg p.o, mean, summary without unit (Table 12), 3 mg/kg, in ng·h/mL): 2198; Potency in inhibition of DK-PGD2-induced blood eosinophilia [3]: 17 mg/kg

Question: With `Cc1c(Cc2ccccc2S(=O)(=O)c2ccccc2)c2cc(F)ccc2n1CC(=O)O` [Compound 1, 2-(5-fluoro-2-methyl-3-(2-(phenylsulfonyl)benzyl)-1H-indol-1-yl)acetic acid] as the compound, how does the IC50 [1, 4] read?
Answer: The IC50 was 5 nM.

Question: And the IC50 [1, 5]?
Answer: The IC50 was 5 nM.

Question: What about the “IC50” value ([1]; whole blood eosinophil shape change IC50 converted to ng/mL) of the same compound?
Answer: The value was 2.2 ng/mL.

Question: And the concentration at 0.25 h [2, 6]?
Answer: Its concentration at 0.25 h is 1160 ng/mL.

Question: What about the concentration at 0.25 h [2, 7] of the same compound?
Answer: The concentration at 0.25 h was 1450 ng/mL.

Question: What about the concentration at 0.5 h [2, 8] of the same compound?
Answer: The concentration at 0.5 h was 2680 ng/mL.

Question: And the concentration at 0.5 h [2, 9]?
Answer: The concentration at 0.5 h was 2910 ng/mL.

Question: And the concentration at 1 h [2, 10]?
Answer: Its concentration at 1 h is 3840 ng/mL.

Question: And the concentration at 1 h [2, 11]?
Answer: The concentration at 1 h was 4000 ng/mL.

Question: What about the concentration at 2 h ([2]; male, rat, plasma, po, 3 mg/kg, rat, 2 h, individual male animals, read-out: Concentration in Blood) of the same compound?
Answer: Its concentration at 2 h is 4330 ng/mL.

Question: What about the concentration at 2 h [2, 12] of the same compound?
Answer: The concentration at 2 h was 3950 ng/mL.

Question: And the concentration at 4 h ([2]; male, rat, plasma, po, 3 mg/kg, rat, 4 h, individual male animals, read-out: Concentration in Blood)?
Answer: The concentration at 4 h was 1890 ng/mL.

Question: What about the concentration at 4 h [2, 13] of the same compound?
Answer: The concentration at 4 h was 1540 ng/mL.

Question: What about the concentration at 6 h [2, 14] of the same compound?
Answer: The concentration at 6 h was 1050 ng/mL.

Question: And the concentration at 8 h [2, 15]?
Answer: The concentration at 8 h was 734 ng/mL.

Question: What about the concentration at 12 h ([2]; male, rat, plasma, po, 3 mg/kg, rat, 12 h, individual male animals, read-out: Concentration in Blood) of the same compound?
Answer: The concentration at 12 h was 455 ng/mL.

Question: What about the concentration at 12 h [2, 16] of the same compound?
Answer: Its concentration at 12 h is 375 ng/mL.

Question: And the concentration at 24 h [2, 17]?
Answer: Its concentration at 24 h is 47.4 ng/mL.

Question: And the AUC(0-inf) ([2]; male, rat, plasma, po, 3 mg/kg, rat, 3 mg/kg p.o, individual male animals, read-out: AUCinf)?
Answer: Its AUC(0-inf) is 23800 ng·h/mL.

Question: And the Cmax ([2]; male, rat, plasma, po, 3 mg/kg, rat, 3 mg/kg p.o, individual male animals, read-out: Cmax)?
Answer: Its Cmax is 4330 ng/mL.

Question: What about the Tmax [2, 18] of the same compound?
Answer: The Tmax was 2 h.

Question: What about the half-life [2, 19] of the same compound?
Answer: The half-life was 4.11 h.

Question: What about the AUC(0-inf) [2, 20] of the same compound?
Answer: The AUC(0-inf) was 19200 ng·h/mL.

Question: And the Cmax [2, 21]?
Answer: The Cmax was 4160 ng/mL.

Question: What about the AUC(0-inf) [2, 22] of the same compound?
Answer: The AUC(0-inf) was 19300 ng·h/mL.

Question: And the Cmax [2, 23]?
Answer: The Cmax was 4160 ng/mL.

Question: And the Tmax [2, 24]?
Answer: Its Tmax is 1.3 h.

Question: And the half-life [2, 25]?
Answer: The half-life was 3.6 h.

Question: And the “Fold over IC50 at 12 h” value ([2]; mean blood concentration at 12 h (rat, 3 mg/kg p.o.) divided by whole blood IC50 in ng/ml)?
Answer: The value was 170.

Question: And the “Concentration in Blood” value [2, 26]?
Answer: The value was 1496.0 ng/mL and 1678.0 ng/mL.

Question: What about the “Concentration in Blood” value [2, 27] of the same compound?
Answer: Its value is 2792.4 ng/mL and 3264.7 ng/mL.

Question: What about the “Concentration in Blood” value [2, 28] of the same compound?
Answer: Its value is 3895.3 ng/mL and 4262.9 ng/mL.

Question: And the “Concentration in Blood” value [2, 29]?
Answer: The value was 3454.7 ng/mL and 4051.1 ng/mL.

Question: And the “Concentration in Blood” value [2, 30]?
Answer: Its value is 1046.5 ng/mL and 1670.8 ng/mL.

Question: And the “Concentration in Blood” value [2, 31]?
Answer: Its value is 1423.7 ng/mL and 547.5 ng/mL and 1183.1 ng/mL.

Question: And the “Concentration in Blood” value [2, 32]?
Answer: The value was 1099.9 ng/mL and 404.7 ng/mL and 696.2 ng/mL.

Question: And the “Concentration in Blood” value [2, 33]?
Answer: Its value is 256.6 ng/mL and 412.8 ng/mL.

Question: What about the “Concentration in Blood” value ([2]; rat, 24 h, individual male animals, 3 mg/kg) of the same compound?
Answer: The value was 68.5 ng/mL and 10.2 ng/mL and 63.5 ng/mL.

Question: What about the AUCinf [2, 34] of the same compound?
Answer: Its AUCinf is 14846 ng·h/mL and 21731 ng·h/mL.

Question: And the Cmax [2, 34]?
Answer: The Cmax was 3895 ng/mL and 4263 ng/mL.

Question: And the Tmax [2, 34]?
Answer: Its Tmax is 1 h.

Question: And the T½ [2, 34]?
Answer: Its T½ is 3.07 h and 4.59 h.

Question: What about the Potency in inhibition of DK-PGD2-induced blood eosinophilia [3] of the same compound?
Answer: Its Potency in inhibition of DK-PGD2-induced blood eosinophilia is 0.0025 mg/kg.

Reference: patent publication US7999119B2, “Compounds having CRTH2 antagonist activity” (Oxagen Limited, priority 2006, dated 2011)
